From patent US20210115104A1, “AMYLIN ANALOGUES” (Zealand Pharma A/S, priority 2015, published 2021)
*1 amine or outer side, *2 acyl side, *3 side chain or, on linkers, in order; H or OH if unused. Where a SMILES comes first, the peptide text is derived from it. Bridges are numbered along the chain shown (N, C = ends). [ ]: non-standard residue; d: D form. The star is where a group is joined. C20 diacid = O=C(O)CCCCCCCCCCCCCCCCCCC(=O)*; γGlu = O=C(O)[C@H](CCC(=O)[*:2])N[*:1]; Hyp = O=C(O)[C@@H]1C[C@@H](O)CN1; NMeI = CC[C@H](C)[C@H](NC)C(=O)O; Aad = N[C@@H](CCCC(=O)O)C(=O)O; Sar = CNCC(=O)O

Columns and labels:
[1] = Assessment of physical stability (Thioflavin T fibrillation); type: physicochemical; set-up: key: FND = fibrillation not detected; FD = fibrillation detected; conditions: 1 mg/ml, 40° C., ThT; for Fibrillation pH 4.0 (Ac): 50 mM acetate buffer pH 4.0, 96 hours; for Fibrillation pH 7.0 (His): 50 mM histidine buffer pH 7.0, 96 hours; for Fibrillation pH 7.0 (Phos.): 50 mM phosphate buffer pH 7.0, 96 hours
In short: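 Fibrillation lag-time, in hours, taken where regressions of the initial stable phase and the growth phase intersect. ThT (40 μM) fluorescence monitored at 40 °C for 96 h, 10-min reads each preceded by 300 s mixing. Peptide at 1 mg/ml in 50 mM buffers: phosphate or histidine pH 7.0, acetate pH 4.0.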

[2] = biological target: T1, human calcitonin receptor (hCTR2) (Homo sapiens, UniProt P30988); test: hCTR2 cAMP assay (AlphaScreen) in COS7 cells; type: cell-based; conditions: cAMP induction, COS7 cells expressing hCTR2; Table 1; read-out: hCTR2 EC50
T1 construct: expressed in transfected cells
T1 sequence (P30988 25-474): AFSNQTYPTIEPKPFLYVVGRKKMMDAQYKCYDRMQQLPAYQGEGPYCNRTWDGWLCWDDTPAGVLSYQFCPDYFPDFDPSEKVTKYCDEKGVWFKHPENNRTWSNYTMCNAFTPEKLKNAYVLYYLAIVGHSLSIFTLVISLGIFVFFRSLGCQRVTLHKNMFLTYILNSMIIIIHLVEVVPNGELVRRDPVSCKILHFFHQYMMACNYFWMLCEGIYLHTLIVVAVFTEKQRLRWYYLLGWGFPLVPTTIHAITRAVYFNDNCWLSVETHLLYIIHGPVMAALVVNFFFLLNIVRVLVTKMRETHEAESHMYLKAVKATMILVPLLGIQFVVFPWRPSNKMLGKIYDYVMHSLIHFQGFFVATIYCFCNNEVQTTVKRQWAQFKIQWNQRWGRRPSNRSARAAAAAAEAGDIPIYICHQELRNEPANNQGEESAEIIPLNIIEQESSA
In short: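 cAMP induction, read by AlphaScreen after lysis, gives EC50 values via 4PL curve fitting. Peptides were applied at rising concentrations for 15 min at 37 °C, with IBMX and 0.1% casein in HEPES-buffered Tyrode pH 7.4, to COS7 cells (no endogenous RAMPs) stably expressing human CTR2.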

[3] = Assessment of chemical stability (RP-HPLC normalized purity); type: physicochemical; conditions: 7 days, 40° C., Table 1; for Normalized purity after 7 days, 40° C., pH 4: pH 4, 0.2 mg/ml; for Normalized purity after 7 days, 40° C., pH 6: pH 6, 0.2 mg/ml; for Normalized purity after 7 days, 40° C., pH 7.5: pH 7.5, 0.2 mg/ml; for Normalized purity after 7 days, 40° C., pH 9: pH 9, 0.2 mg/ml
In short: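 Purity after 7 days at 40° C is expressed relative to T=0 (set to 100) for each pH. Samples at 0.2 mg/ml, pH 4, 6, 7.5 or 9, analyzed by RP-HPLC with UV 220 nm on C8 (ammonium formate) or C18 (TFA) gradients.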

[4] = biological target: T2, human amylin receptor 3 (hAMYR3), hCTR2 co-expressed with hRAMP3 (Homo sapiens, UniProt O60896+P30988); test: hAMYR3 cAMP assay (AlphaScreen) in COS7 cells; type: cell-based; conditions: cAMP induction, COS7 cells expressing hAMYR3; Table 1; read-out: hAMYR3 EC50
T2 construct: expressed in transfected cells
T2 sequence (P30988 25-474): T1 sequence (P30988 25-474)
T2 sequence (O60896 24-148 partner): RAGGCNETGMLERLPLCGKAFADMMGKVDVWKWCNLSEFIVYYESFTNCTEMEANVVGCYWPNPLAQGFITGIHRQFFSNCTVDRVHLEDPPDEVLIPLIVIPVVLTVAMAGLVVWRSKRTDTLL
In short: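 EC50 values derive from 4PL curve fits of cAMP (AlphaScreen) in lysates of RAMP-naive COS7 cells stably carrying hCTR2 plus hRAMP3. Peptide dilution series were applied for 15 min at 37 °C in pH 7.4 Tyrode buffer containing 100 µM IBMX and 0.1% casein.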

| Fibrillation pH 4.0 (Ac) [1] | Fibrillation pH 7.0 (His) [1] | Fibrillation pH 7.0 (Phos.) [1] | EC50 [2] [nM] | Normalized purity after 7 days, 40° C., pH 4 [3] | Normalized purity after 7 days, 40° C., pH 6 [3] | Normalized purity after 7 days, 40° C., pH 7.5 [3] | Normalized purity after 7 days, 40° C., pH 9 [3] | EC50 [4] [nM] | SMILES |
| --- | --- | --- | --- | --- | --- | --- | --- | --- | --- |
| FND | FND | FND | 0.14 | A (A = >90%) | A (A = >90%) | B (B = 70-90%) | B (B = 70-90%) | 0.13 | CC[C@H](C)[C@@H](C(=O)N[C@@H](CC(C)C)C(=O)N[C@@H](CO)C(=O)N[C@@H](CO)C(=O)N[C@H](C(=O)N[C@@H](CCC(=O)O)C(=O)N[C@H](C(=O)NCC(=O)N[C@@H](CO)C(=O)N[C@@H](CCCC(=O)O)C(=O)N[C@H](C(=O)N1C[C@H](O)C[C@H]1C(N)=O)[C@@H](C)O)C(C)C)[C@@H](C)O)N(C)C(=O)[C@H](C)NC(=O)CN(C)C(=O)[C@H](Cc1ccccc1)NC(=O)[C@H](CO)NC(=O)[C@H](CO)NC(=O)[C@H](CCCNC(=N)N)NC(=O)[C@H](CCC(N)=O)NC(=O)[C@H](CC(C)C)NC(=O)[C@H](Cc1ccccc1)NC(=O)[C@H](Cc1c[nH]cn1)NC(=O)[C@H](C)NC(=O)[C@H](CC(C)C)NC(=O)[C@H](CCCNC(=N)N)NC(=O)[C@H](CCC(=O)O)NC(=O)[C@@H](NC(=O)[C@H](C)NC(=O)[C@@H]1CSSC[C@H](NC(=O)[C@H](CCCNC(=N)N)NC(=O)CC[C@H](NC(=O)CCCCCCCCCCCCCCCCCCC(=O)O)C(=O)O)C(=O)NCC(=O)N[C@@H]([C@@H](C)O)C(=O)N[C@@H](C)C(=O)N[C@@H]([C@@H](C)O)C(=O)N1)[C@@H](C)O [Compound 53, [19CD]-isoGlu-R-C( )-GTAT-C( )-ATERLAHFLQRSSF-Gly(Me)-A-Ile(Me)-LSSTEVGS-Aad-T-Hyp-NH2] ({C20 diacid-γGlu}-RCGTATCATERLAHFLQRSSF[Sar]A[NMeI]LSSTEVGS[Aad]T[Hyp]-NH2; disulfide 2-7) |
| FND | FND | FND | 0.16 | A (A = >90%) | A (A = >90%) | A (A = >90%) | C (C = <70%) | 0.28 | CC[C@H](C)[C@@H](C(=O)N[C@@H](CC(C)C)C(=O)N[C@@H](CO)C(=O)N[C@@H](CO)C(=O)N[C@H](C(=O)N[C@@H](CCC(=O)O)C(=O)N[C@H](C(=O)NCC(=O)N[C@@H](CO)C(=O)N[C@@H](CC(N)=O)C(=O)N[C@H](C(=O)N1C[C@H](O)C[C@H]1C(N)=O)[C@@H](C)O)C(C)C)[C@@H](C)O)N(C)C(=O)[C@H](C)NC(=O)CN(C)C(=O)[C@H](Cc1ccccc1)NC(=O)[C@H](CO)NC(=O)[C@H](CO)NC(=O)[C@H](CCCNC(=N)N)NC(=O)[C@H](CCCCN)NC(=O)[C@H](CC(C)C)NC(=O)[C@H](Cc1ccccc1)NC(=O)[C@H](Cc1c[nH]cn1)NC(=O)[C@H](C)NC(=O)[C@H](CC(C)C)NC(=O)[C@H](CCCNC(=N)N)NC(=O)[C@H](CCC(=O)O)NC(=O)[C@@H](NC(=O)[C@H](C)NC(=O)[C@@H]1CSSC[C@H](NC(=O)[C@H](CCCNC(=N)N)NC(=O)CC[C@H](NC(=O)CCCCCCCCCCCCCCCCCCC(=O)O)C(=O)O)C(=O)NCC(=O)N[C@@H]([C@@H](C)O)C(=O)N[C@@H](C)C(=O)N[C@@H]([C@@H](C)O)C(=O)N1)[C@@H](C)O [Compound 19, [19CD]-isoGlu-R-C( )-GTAT-C( )-ATERLAHFLKRSSF-Gly(Me)-A-Ile(Me)-LSSTEVGSNT-Hyp-NH2] ({C20 diacid-γGlu}-RCGTATCATERLAHFLKRSSF[Sar]A[NMeI]LSSTEVGSNT[Hyp]-NH2; disulfide 2-7) |
| FD | FD | FD | 0.063 | – | – | – | – | 0.16 | CC[C@H](C)[C@@H](C(=O)N[C@@H](CC(C)C)C(=O)N[C@@H](CO)C(=O)N[C@@H](CO)C(=O)N[C@H](C(=O)N[C@@H](CC(=O)O)C(=O)N[C@H](C(=O)NCC(=O)N[C@@H](CO)C(=O)N[C@@H](CC(=O)O)C(=O)N[C@H](C(=O)N1CCC[C@H]1C(N)=O)[C@@H](C)O)C(C)C)[C@@H](C)O)N(C)C(=O)[C@H](C)NC(=O)CN(C)C(=O)[C@H](Cc1ccccc1)NC(=O)[C@H](CO)NC(=O)[C@H](CO)NC(=O)[C@H](CCCNC(=N)N)NC(=O)[C@H](Cc1c[nH]cn1)NC(=O)[C@H](CC(C)C)NC(=O)[C@H](Cc1ccccc1)NC(=O)[C@H](Cc1c[nH]cn1)NC(=O)[C@H](C)NC(=O)[C@H](CC(C)C)NC(=O)[C@H](CCCNC(=N)N)NC(=O)[C@H](CC(=O)O)NC(=O)[C@@H](NC(=O)[C@H](C)NC(=O)[C@@H]1CSSC[C@H](NC(=O)[C@H](CCCNC(=N)N)NC(=O)CC[C@H](NC(=O)CCCCCCCCCCCCCCCCCCC(=O)O)C(=O)O)C(=O)N2CCC[C@H]2C(=O)N[C@@H]([C@@H](C)O)C(=O)N[C@@H](C)C(=O)N[C@@H]([C@@H](C)O)C(=O)N1)[C@@H](C)O [Compound 27, [19CD]-isoGlu-R-C( )-PTAT-C( )-ATDRLAHFLHRSSF-Gly(Me)-A-Ile(Me)-LSSTDVGSDTP-NH2] ({C20 diacid-γGlu}-RCPTATCATDRLAHFLHRSSF[Sar]A[NMeI]LSSTDVGSDTP-NH2; disulfide 2-7) |
| FND | FD | FD | 0.07 | – | – | – | – | 0.12 | CC[C@H](C)[C@@H](C(=O)N[C@@H](CC(C)C)C(=O)N[C@@H](CO)C(=O)N[C@@H](CO)C(=O)N[C@H](C(=O)N[C@@H](CCC(=O)O)C(=O)N[C@H](C(=O)NCC(=O)N[C@@H](CO)C(=O)N[C@@H](CO)C(=O)N[C@H](C(=O)N1C[C@H](O)C[C@H]1C(N)=O)[C@@H](C)O)C(C)C)[C@@H](C)O)N(C)C(=O)[C@H](C)NC(=O)CN(C)C(=O)[C@H](Cc1ccccc1)NC(=O)[C@H](CO)NC(=O)[C@H](CO)NC(=O)[C@H](CCCNC(=N)N)NC(=O)[C@H](Cc1c[nH]cn1)NC(=O)[C@H](CC(C)C)NC(=O)[C@H](Cc1ccccc1)NC(=O)[C@H](Cc1c[nH]cn1)NC(=O)[C@H](C)NC(=O)[C@H](CC(C)C)NC(=O)[C@H](CCCNC(=N)N)NC(=O)[C@H](CCC(=O)O)NC(=O)[C@@H](NC(=O)[C@H](C)NC(=O)[C@@H]1CSSC[C@H](NC(=O)[C@H](CCCNC(=N)N)NC(=O)CC[C@H](NC(=O)CCCCCCCCCCCCCCCCCCC(=O)O)C(=O)O)C(=O)NCC(=O)N[C@@H]([C@@H](C)O)C(=O)N[C@@H](C)C(=O)N[C@@H]([C@@H](C)O)C(=O)N1)[C@@H](C)O [Compound 30, [19CD]-isoGlu-R-C( )-GTAT-C( )-ATERLAHFLHRSSF-Gly(Me)-A-Ile(Me)-LSSTEVGSST-Hyp-NH2] ({C20 diacid-γGlu}-RCGTATCATERLAHFLHRSSF[Sar]A[NMeI]LSSTEVGSST[Hyp]-NH2; disulfide 2-7) |
